Results reported in US8268531B2, “Photoacid generator compounds and compositions” (Cornell Research Foundation, Inc., priority 2008, dated 2012).

Tests used:
Thermal properties (Td) = format: physicochemical; conditions: thermal property of the PAG
[1] = Optical properties: absorptivity at 248 nm in acetonitrile; format: physicochemical; conditions: Measured in acetonitrile

SMILES | Td (Thermal properties (Td)) [°C] | ε248 [1] [cm^2 · mol^-1]
O=S(=O)(O)C(F)(F)C(F)(F)CCCl | 205 | –
O=S(=O)(O)C(F)(F)C(F)(F)Oc1ccccc1 | 190 | 6015
O=S(=O)(O)C(F)(F)C(F)(F)OC(F)(F)C(F)(F)C1CC2CCC1C2 (centres unmarked) | 164 | 5220
O=C1CCC(CC(F)(F)C(F)(F)OC(F)(F)C(F)(F)S(=O)(=O)O)O1 (centres unmarked) | 165 | 5400
O=S(=O)(O)C(F)(F)C(F)(F)C(F)(F)C(F)(F)F | – | 4200
